Earlier results on 2 compounds are cited in patent publication US11517522B2, “Aprepitant ready-to-use injection emulsion compositions” (priority 2020, dated 2022).

Molecules are shown by their SMILES.

For data set [1] the following is noted: given orally; commercial nanoparticulate composition (Emend).
For data set [2] the following is noted: IV infusion.
Data set [3] has as its system acute and delayed chemotherapy-induced nausea and vomiting. Particulars: versus aprepitant.

For the compound `C[C@@H](O[C@H]1OCCN(Cc2n[nH]c(=O)[nH]2)[C@H]1c1ccc(F)cc1)c1cc(C(F)(F)F)cc(C(F)(F)F)c1` [Aprepitant, 5-([(2R, 3S)-2-((R)-1-[3,5-bis (trifluoromethyl)phenyl]ethoxy)-3-(4-fluoro-phenyl)morpholino]methyl)-1H-1,2,4-triazol-3(2H)-one], the solubility in acetonitrile entry (acetonitrile) is reported as “slightly soluble”. In addition, the solubility in ethanol result (ethanol) is “sparingly soluble”. Also, the “solubility in isopropyl acetate” value (isopropyl acetate) is “sparingly soluble”. Moreover, the solubility in water entry (water) is “practically insoluble”. Also, in data set [1], the bioavailability was 60-65%.
On to `C[C@@H](O[C@H]1OCCN(Cc2nc(O)n(P(=O)(O)O)n2)[C@H]1c1ccc(F)cc1)c1cc(C(F)(F)F)cc(C(F)(F)F)c1` [Fosaprepitant, fosaprepitant dimeglumine], for which the “time for conversion to aprepitant” value in data set [2] was “less than 30 minutes”. In addition, the “comparison with aprepitant in prevention and control of acute and delayed chemotherapy-induced nausea and vomiting” value in data set [3] is “non-inferiority and bioequivalency”.
